Measured values: patent publication US7851510B2, “Gossypol derivatives, production method thereof and uses of same” (Centre National de la Recherche Scientifique (C.N.R.S.), priority 2004, dated 2010)
pIC50: −log10 of the molar value.

Each molecule was assayed on KB tumour cell line (assay: Cytotoxicity vis-à-vis the KB tumour cell line). Details: Homo sapiens.
Format: cell-based
Procedure: The cytotoxicity of the compound vis-à-vis the KB tumour cell line was measured as is described in Dao et al. (2003) Bioorg. Med. Chem. 11:2001-2006.

| Structure (SMILES) | pIC50 |
| --- | --- |
| CC1=C(C2=C(C)C(=O)c3c(c(CSc4c(F)c(F)cc(F)c4F)c(O)c(O)c3C(C)C)C2=O)C(=O)c2c(CSc3c(F)c(F)cc(F)c3F)c(O)c(O)c(C(C)C)c2C1=O [(11), 6,7,6′,7′-tetrahydroxy-5,5′-diisopropyl-8,8′-bis-(2,3,5,6-tetrafluoro-phenylsulphanylmethyl)-3,3′-dimethyl-[2,2′]binaphthalenyl-1,4,1′,4′-tetraone] | 5.07 |
| CC1=C(C2=C(C)C(=O)c3c(c(CO)c(O)c(O)c3C(C)C)C2=O)C(=O)c2c(CO)c(O)c(O)c(C(C)C)c2C1=O [(5), 6,7,6′,7′-tetrahydroxy-8,8′-bis-hydroxymethyl-5,5′-diisopropyl-3,3′-dimethyl-[2,2′]binaphthalenyl-1,4,1′,4′-tetraone] | 6.00 |
| CC1=C(C2=C(C)C(=O)c3c(c(CSc4ccc(Cl)cc4)c(O)c(O)c3C(C)C)C2=O)C(=O)c2c(CSc3ccc(Cl)cc3)c(O)c(O)c(C(C)C)c2C1=O [(10), 6,7,6′,7′-tetrahydroxy-5,5′-diisopropyl-8,8′-bis-(4-chloro-phenylsulphanylmethyl)-3,3′-dimethyl-[2,2′]binaphthalenyl-1,4,1′,4′-tetraone] | 5.52 |
| CC1=C(C2=C(C)C(=O)c3c(c(CSc4ccc(C)cc4)c(O)c(O)c3C(C)C)C2=O)C(=O)c2c(CSc3ccc(C)cc3)c(O)c(O)c(C(C)C)c2C1=O [(8), 6,7,6′,7′-tetrahydroxy-5,5′-diisopropyl-3,3′-dimethyl-8,8′-bis-p-tolylsulphanylmethyl-[2,2′]binaphthalenyl-1,4,1′,4′-tetraone] | 5.19 |
| CC1=C(C2=C(C)C(=O)c3c(c(CSc4ccccc4)c(O)c(O)c3C(C)C)C2=O)C(=O)c2c(CSc3ccccc3)c(O)c(O)c(C(C)C)c2C1=O [(7), 6,7,6′,7′-tetrahydroxy-5,5′-diisopropyl-3,3′-dimethyl-8,8′-bis-phenylsulphanylmethyl-[2,2′]binaphthalenyl-1,4,1′,4′-tetraone] | 5.40 |
| COc1ccc(SCc2c(O)c(O)c(C(C)C)c3c2C(=O)C(C2=C(C)C(=O)c4c(c(CSc5ccc(OC)cc5)c(O)c(O)c4C(C)C)C2=O)=C(C)C3=O)cc1 [(9), 6,7,6′,7′-tetrahydroxy-5,5′-diisopropyl-8,8′-bis-(4-methoxy-phenylsulphanylmethyl)-3,3′-dimethyl-[2,2′]binaphthalenyl-1,4,1′,4′-tetraone] | 5.19 |
